Data: ChEMBL document CHEMBL1201862, “PubChem BioAssay data set” (2004)
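How tested: cells in 96-well plates exposed to compound for 48 hours at five concentrations. Here, GI50 denotes the concentration required for 50% inhibition of growth.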 Calls of active or inactive are those of the source. Rule as the data show it: active = GI50 up to about 1.1 µM and inactive = higher. Non-standard residues stand in square brackets, D forms with d. Residues, ends and D or L forms follow the SMILES beside them. *: point of attachment. Ac5c = NC1(C(=O)O)CCCC1; Cbz = O=C(OCc1ccccc1)*; Boc = CC(C)(C)OC(=O)*; tBu = CC(C)(C)*

Tests used:
Test in all cases: DTP human tumour cell line panel, 48 h
LOX IMVI = system: LOX IMVI
CCRF-CEM = system: CCRF-CEM
HT-29 = system: HT-29
NCI-H226 = system: NCI-H226
SF-539 = system: SF-539
T47D = system: T47D
786-0 = system: 786-0
SF-295 = system: SF-295
NCI-H460 = system: NCI-H460
KM12 = system: KM12
UO-31 = system: UO-31
OVCAR-5 = system: OVCAR-5
TK-10 = system: TK-10
K562 = system: K562
EKVX = system: EKVX
DU-145 = system: DU-145
A549 = system: A549
SK-MEL-2 = system: SK-MEL-2
RXF 393 = system: RXF 393
SNB-19 = system: SNB-19

Measured: GI50

COCC1OC(OC2C3=C(C(C)C)CCC3(C)/C=C3\C(CCC3(O)COC)C(C)C2O)C(O)C2OC3OC12OC3(C)C1CO1 (stereo not given)
inactive: LOX IMVI 22.5 µM | CCRF-CEM 24.3 µM | HT-29 34.8 µM | NCI-H226 16.3 µM | SF-539 24.8 µM | T47D 29.4 µM | 786-0 60.8 µM | SF-295 31.7 µM | NCI-H460 32.7 µM | KM12 52.8 µM | UO-31 16.4 µM | OVCAR-5 > 100 µM | TK-10 29.9 µM | K562 25.1 µM | EKVX 37.5 µM | DU-145 72.6 µM | A549 53.8 µM | SK-MEL-2 83.6 µM | RXF 393 21.2 µM | SNB-19 28.1 µM

CC(=O)/C=C/C1=C(C)CCCC1(C)CC(C)C (stereo not given)
inactive: LOX IMVI 18.6 µM | CCRF-CEM 14.9 µM | HT-29 28 µM | NCI-H226 33.5 µM | SF-539 31.9 µM | T47D 15.3 µM | 786-0 19 µM | SF-295 34.2 µM | NCI-H460 29.1 µM | KM12 34.8 µM | UO-31 36.9 µM | OVCAR-5 61.5 µM | TK-10 > 100 µM | K562 16 µM | EKVX 39.7 µM | DU-145 69.3 µM | A549 24.9 µM | SK-MEL-2 19.6 µM | RXF 393 14.8 µM | SNB-19 27.4 µM

NC12Oc3cc(O)cc(O)c3C1(c1ccc(Cl)cc1)c1c(O)cc(O)cc1O2 (stereo not given)
inactive: LOX IMVI 57.4 µM | CCRF-CEM 37.7 µM | HT-29 35.4 µM | NCI-H226 > 100 µM | SF-539 42.8 µM | T47D > 100 µM | 786-0 61.8 µM | SF-295 96.8 µM | NCI-H460 34.6 µM | KM12 > 100 µM | UO-31 92.5 µM | OVCAR-5 > 100 µM | TK-10 66.8 µM | K562 30.8 µM | EKVX 71.8 µM | DU-145 > 100 µM | A549 > 100 µM | SK-MEL-2 36.6 µM | RXF 393 32.3 µM | SNB-19 73.1 µM

Cn1c2c(c3ccccc31)CCN(CCCCN1CCN(c3ccccc3)CC1)C2=O
inactive: LOX IMVI 12.8 µM | CCRF-CEM 24.5 µM | HT-29 4.16 µM | NCI-H226 > 41.8 µM | SF-539 34 µM | T47D 3.86 µM | 786-0 29.6 µM | SF-295 > 88.3 µM | NCI-H460 28.6 µM | KM12 30.1 µM | UO-31 17.3 µM | OVCAR-5 19.6 µM | TK-10 45 µM | K562 4.15 µM | EKVX > 38.5 µM | DU-145 35.9 µM | A549 97.3 µM | SK-MEL-2 24 µM | RXF 393 10.8 µM | SNB-19 75.9 µM

COc1c(C(=O)/C(=N/Nc2cccc(Cl)c2)C(C)=O)c(O)c(OC)c2occc12
inactive: LOX IMVI 56.4 µM | CCRF-CEM 88.1 µM | HT-29 95.1 µM | NCI-H226 > 100 µM | SF-539 > 100 µM | T47D 50.8 µM | 786-0 > 100 µM | SF-295 58.1 µM | NCI-H460 65.8 µM | KM12 > 100 µM | UO-31 37.2 µM | OVCAR-5 > 100 µM | TK-10 > 100 µM | K562 > 100 µM | EKVX 78.7 µM | DU-145 > 100 µM | A549 > 100 µM | SK-MEL-2 > 100 µM | RXF 393 34.6 µM | SNB-19 > 100 µM

COc1ccc2ccccc2c1/C=C/C(=O)c1ccccc1
inactive: LOX IMVI 2.77 µM | CCRF-CEM 1.65 µM | HT-29 3.43 µM | NCI-H226 3.1 µM | SF-539 2.74 µM | T47D 2.43 µM | 786-0 2.87 µM | SF-295 3.75 µM | NCI-H460 1.79 µM | KM12 2.51 µM | UO-31 2.82 µM | OVCAR-5 7.57 µM | TK-10 2.59 µM | K562 1.93 µM | EKVX 3.61 µM | DU-145 2.4 µM | A549 2.65 µM | SK-MEL-2 1.56 µM | RXF 393 1.33 µM | SNB-19 3.24 µM

COC(=O)C1(NC(=O)C(Cc2ccccc2)NC(=O)C(NC(=O)C(CCCCNC(=O)OC(C)(C)C)NC(=O)C(Cc2c[nH]c3ccccc23)NC(=O)C(Cc2ccccc2)NC(=O)OCc2ccccc2)C(C)OC(C)(C)C)CCCC1 (stereo not given) (Cbz-FWK(Boc)T(tBu)F[Ac5c]-OMe; configuration not given here)
inactive: LOX IMVI 80.9 µM | CCRF-CEM 98.9 µM | HT-29 > 100 µM | NCI-H226 > 100 µM | SF-539 > 10 µM | T47D 24.6 µM | 786-0 > 100 µM | SF-295 > 100 µM | NCI-H460 > 100 µM | KM12 > 100 µM | UO-31 > 100 µM | OVCAR-5 64.1 µM | TK-10 > 100 µM | K562 > 100 µM | EKVX > 100 µM | DU-145 > 100 µM | A549 > 100 µM | SK-MEL-2 6.61 µM | RXF 393 > 100 µM | SNB-19 52.2 µM

CC(C)CC(C(N)=O)C(=O)NC(Cc1ccccc1)NC(=O)CNC(=O)C(C)NC(=O)C(N)Cc1ccc(O)cc1 (stereo not given)
inactive: LOX IMVI > 100 µM | CCRF-CEM > 100 µM | HT-29 > 100 µM | NCI-H226 > 100 µM | SF-539 > 100 µM | T47D > 100 µM | 786-0 > 100 µM | SF-295 > 100 µM | NCI-H460 > 100 µM | KM12 > 100 µM | UO-31 > 100 µM | OVCAR-5 > 100 µM | TK-10 > 100 µM | K562 > 100 µM | EKVX > 100 µM | DU-145 > 100 µM | A549 > 100 µM | SK-MEL-2 > 100 µM | RXF 393 > 100 µM | SNB-19 > 100 µM

CC(=O)OC(C)(C)CCC(=O)[C@](C)(O)[C@H]1[C@H](O)C[C@@]2(C)[C@@H]3CC=C4C(C)=C(OC5OC(CO)C(O)C(O)C5O)C(=O)C[C@@H]4[C@]3(C)C(=O)C[C@]12C (stereo not given in full)
inactive: LOX IMVI > 100 µM | CCRF-CEM > 100 µM | HT-29 > 100 µM | NCI-H226 > 100 µM | SF-539 > 100 µM | T47D > 100 µM | 786-0 > 100 µM | SF-295 > 100 µM | NCI-H460 > 100 µM | KM12 > 100 µM | UO-31 > 100 µM | OVCAR-5 > 100 µM | TK-10 > 100 µM | K562 > 100 µM | EKVX > 100 µM | DU-145 > 100 µM | A549 > 100 µM | SK-MEL-2 > 100 µM | RXF 393 > 100 µM | SNB-19 > 100 µM

COc1ccc(Nc2nc(N)c(C(=O)c3cccs3)s2)cc1
inactive: LOX IMVI 6.67 µM | CCRF-CEM 3.38 µM | HT-29 3.35 µM | NCI-H226 5.86 µM | SF-539 4.21 µM | T47D 15.8 µM | 786-0 8.49 µM | SF-295 10.9 µM | NCI-H460 3.1 µM | KM12 2.99 µM | UO-31 6.1 µM | OVCAR-5 15.8 µM | TK-10 5.08 µM | K562 3.64 µM | EKVX 16.9 µM | DU-145 5.56 µM | A549 5.7 µM | SK-MEL-2 10.9 µM | RXF 393 5.55 µM | SNB-19 11 µM

O=c1[nH]c(=S)[nH]n1C(=S)n1[nH]c(=S)[nH]c1=O
inactive: LOX IMVI 60.4 µM | CCRF-CEM 71.8 µM | HT-29 > 100 µM | NCI-H226 > 100 µM | SF-539 > 100 µM | T47D > 100 µM | 786-0 > 100 µM | SF-295 > 100 µM | NCI-H460 > 100 µM | KM12 > 100 µM | UO-31 > 100 µM | OVCAR-5 > 100 µM | TK-10 > 100 µM | K562 > 100 µM | EKVX > 100 µM | DU-145 > 100 µM | A549 > 100 µM | SK-MEL-2 > 100 µM | RXF 393 > 100 µM | SNB-19 > 100 µM

Cc1ccc(CN2CCN(Cc3ccc(C)o3)C(C)C2)o1 (stereo not given)
inactive: LOX IMVI > 100 µM | CCRF-CEM > 100 µM | HT-29 > 100 µM | NCI-H226 > 100 µM | SF-539 > 100 µM | T47D > 100 µM | 786-0 > 100 µM | SF-295 > 100 µM | NCI-H460 > 100 µM | KM12 > 100 µM | UO-31 > 100 µM | OVCAR-5 > 100 µM | TK-10 > 100 µM | K562 > 100 µM | EKVX > 100 µM | DU-145 > 100 µM | A549 > 100 µM | SK-MEL-2 > 100 µM | RXF 393 > 100 µM | SNB-19 > 100 µM

CCOC(=O)C1C(=O)C=C(c2cc(C)ccc2O)CC1c1cccc(Cl)c1 (stereo not given)
inactive: LOX IMVI 24.2 µM | CCRF-CEM 19.8 µM | HT-29 32 µM | NCI-H226 24.5 µM | SF-539 19.6 µM | T47D 36.1 µM | 786-0 36.6 µM | SF-295 23.9 µM | NCI-H460 26.1 µM | KM12 16.3 µM | UO-31 19.6 µM | OVCAR-5 43.7 µM | TK-10 20.3 µM | K562 12.9 µM | EKVX 30.1 µM | DU-145 50.1 µM | A549 19 µM | SK-MEL-2 16.7 µM | RXF 393 19.3 µM | SNB-19 19.6 µM
